Assays:
[1] = system: TUNEL positive cells of cerebral cortex in penumbra; experiment: TUNEL staining of brain tissue; assay type: in vivo, C57BL/6 mice; conditions: brain tissue 24 hours after administration; tPA 10 mg/kg alone; T541 20 mg/kg + tPA 10 mg/kg
Description: After reperfused for 24 hours, mice were killed to take brain, so as to observe the degree of cerebral hemorrhage and infarct size, measure the hemoglobin content in brain tissues after bleeding, detect dry/wet weight ratio and Evans Blue leakage of brain tissues, reflect the condition of tissue edema, observe the severity order of apoptosis by TUNEL staining brain tissues, observe the change of blood brain barrier of the blood vessel when injured by making Western blotting analysis on connexins Occludin, JAM-1, ZO-1, VE-cadherin and laminin, namely, the component of basement membrane and by conducting immunofluorescent staining on partial connexins and laminin, detect the change of the structure after cerebral ischemia reperfusion by a scanning electron microscope and IEM, and measure the change on the activity of brain tissues MDA, 8-OHdG, ATP/ADP/AMP and mitochondrial complexes I, II and IV by enzyme-linked immunosorbent assay (ELISA).

[2] = system: cerebral cortex microvessels; experiment: Opening number of cerebral cortex microvessels by SEM; assay type: in vivo, C57BL/6 mice; conditions: 24 h after administration; tPA 10 mg/kg alone; T541 20 mg/kg + tPA 10 mg/kg
Description: Scanning electron microscope (SEM): after reperfused for 24 hours, anesthetized mice were perfused 3% glutaraldehyde for 40 minutes via ventriculus sinister at a rate of 3 ml/min; the brain was taken, and the right cortical penumbra was cut off and immobilized in glutaraldehyde for 2 hours. After washed by a PBS phosphate buffer, mice were immobilized in 1% osmium tetroxide for 2 hours; a proper section was taken and fixed on a metal support. Tissue blocks were plated gold, observed and shoot by an SEM (JSM-5600LV, JEOL, Tokyo, Japan).
5 500-fold visual fields were randomly selected for each mouse under SEM to count the opening number of cerebral cortex microvessels in right hemisphere penumbra. N=3. (See lines 3 and 4 of FIG. 7)

mitochondrial complex II = experiment: Mitochondrial complex II activity in brain tissue; assay type: in vivo, C57BL/6 mice; conditions: brain tissue 24 hours after administration; tPA 10 mg/kg alone or + T541 20 mg/kg or ingredients at Table 7 doses
Source text: (§1) To compare the therapeutical effect on reperfusion injury caused by tPA thrombolysis between the traditional Chinese medicinal composition of the present invention and each ingredient (total saponins of Astragalus, the experiment was divided into the following group (tPA is combined with T541, individual ingredient thereof and compatibility of any two ingredients) specifically as follows: tPA+total saponins of Astragalus (tPA+HQ), tPA+ salvianolic acids (tPA+DS), tPA+Panax notoginseng saponins (tPA+SQ), tPA+ total saponins of Astragalus+salvianolic acids (tPA+HQ+DS), tPA+ total saponins of Astragalus+Panax notoginseng saponins (tPA+HQ+SQ), tPA+ salvianolic acids+Panax notoginseng saponins (tPA+DS+SQ) and tPA+T541. Normal saline served as an isovolumetric control. The usage number in each group is 6.
(§2) ELISA adsorption kit was used to measure the change on the content of MDA, 8-hydroxyl-2′-deoxyguanosine (8-OHdG), adenosine triphosphate (ATP), adenosine diphosphate (ADP) and adenosine monophosphate (AMP) in the penumbra field of brain tissue cortex of the mode, and the change on the activity of mitochondrial complexes I, II, IV and V. 6 samples were used to repeat the independent experiment for at least three times for each group of data.

brain tissue (edema) = experiment: Brain tissue dry/wet weight ratio; assay type: in vivo, C57BL/6 mice; conditions: 24 h after administration; tPA 10 mg/kg alone; T541 20 mg/kg + tPA 10 mg/kg
Description: Brain tissue dry/wet weight ratio: after reperfused for 24 hours, mice were immediately anesthetized; the head was cut off to take brain; left and right brain was respectively weighed (denoted as wet weight). Afterwards, the brain was placed into a 60° C. drying oven for drying for 72 hours, and then weighed (denoted as dry weight). Brain tissue dry/wet weight ratio is calculated by […].

mitochondrial complex I = experiment: Mitochondrial complex I activity in brain tissue; assay type: in vivo, C57BL/6 mice; conditions: brain tissue 24 hours after administration; tPA 10 mg/kg alone or + T541 20 mg/kg or ingredients at Table 7 doses
Source text: as §1, §2

VE-cadherin = experiment: Western blotting of VE-cadherin, endothelial cells after hypoxia/reoxygenation; assay type: cell-based; conditions: rat brain endothelial cells, hypoxia 4.5 h/reoxygenation 3 h; tPA 20 mcg/ml alone (model group); T541 400 mcg/ml + tPA 20 mcg/ml
Source text: Establishment of rat brain endothelial cell H/R model: rat brain endothelial cells were purchased from ATCC, and then subcultured to 5-6 generations in normal conditions for further experiment. […]

**Q.** With “tPA: tissue-type plasminogen activator (tPA) for thrombolysis” as the substance, how does the “TUNEL positive cell counting” value [1] read?
**A.** The value was 27.14 ± 1.77.

**Q.** What about the “Opening number of microvessels” value [2] of the same substance?
**A.** Its value is 21.07 ± 1.54.

**Q.** What about the “Complex II activity” value (mitochondrial complex II) of the same substance?
**A.** Its value is 0.025 ± 0.005.

**Q.** What about the “Brain dry/wet weight ratio” value (brain tissue (edema)) of the same substance?
**A.** Its value is 0.801 ± 0.002.

**Q.** What about the “Complex I activity” value (mitochondrial complex I) of the same substance?
**A.** The value was 1.75 ± 0.14.

**Q.** What about the VE-cadherin/β-actin (VE-cadherin) of the same substance?
**A.** The VE-cadherin/β-actin was 0.58 ± 0.07.
